For the series, the system named is over active bladder. The note with it: oral, 5 mg pills three times per day.

Each structure is given as a SMILES string.

Description: Their doctor prescribes an anti-cholinergic agent, oxybutynin chloride, taken orally three times per day in 5 mg pills.
Alternatively, their doctor prescribes an oxybutynin urethral suppository of the invention. Before leaving home, they open the individually wrapped suppository, grasping it by the handle; they insert the meltable portion, containing up to 5 mg of oxybutynin chloride, into their urethra. […] If necessary, the person can remove the remaining portions of the suppository and insert a new suppository to prevent uncontrolled voiding episodes.

Consider `CCN(CC)CC#CCOC(=O)C(O)(c1ccccc1)C1CCCCC1` (centres unmarked) [oxybutynin chloride], for which the “effect on uncontrolled voiding episodes” value (patient one) was “eliminates the uncontrolled voiding episodes”. Further, where the note is “patient two”, the side effects result was “severe dry mouth and dizziness”.
